According to PMC12027443, “Surface Plasmon Resonance (SPR) for the Binding Kinetics Analysis of Synthetic Cannabinoids: Advancing CB1 Receptor Interaction Studies” (International Journal of Molecular Sciences, 2025):
Where two headings read alike, the source gives them in different places.

What was measured:
CB1 receptor [1] = biological target: T1, CB1 receptor (Homo sapiens, UniProt P21554); parameters: method as in PMID 26686391; settings: read-out: GTPγS Binding Assay Ki Value; Table 2; cited from earlier work
T1 sequence (P21554 whole entry): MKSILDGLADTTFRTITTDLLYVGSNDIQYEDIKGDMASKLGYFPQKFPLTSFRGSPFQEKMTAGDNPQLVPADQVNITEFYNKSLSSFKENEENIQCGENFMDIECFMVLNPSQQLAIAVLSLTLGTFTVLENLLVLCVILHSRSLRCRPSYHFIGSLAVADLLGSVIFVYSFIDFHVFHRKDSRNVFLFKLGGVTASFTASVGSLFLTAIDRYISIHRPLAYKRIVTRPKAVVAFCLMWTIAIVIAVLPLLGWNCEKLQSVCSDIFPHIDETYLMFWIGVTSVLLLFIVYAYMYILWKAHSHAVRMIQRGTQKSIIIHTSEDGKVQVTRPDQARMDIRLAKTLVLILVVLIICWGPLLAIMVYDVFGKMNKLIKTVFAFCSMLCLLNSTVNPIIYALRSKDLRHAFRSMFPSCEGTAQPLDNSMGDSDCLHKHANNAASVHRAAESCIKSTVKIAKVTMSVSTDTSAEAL

mice [2] = system: mice; parameters: method as in PMID 40180269; settings: ranking among 4F-ABUTINACA, JWH-018, SDB-005; cited from earlier work
mice [3] = system: mice; parameters: method as in PMID 40180269; settings: hypothermia, motor suppression, catalepsy; ranking among 4F-ABUTINACA, JWH-018, SDB-005; cited from earlier work
CB1 receptor [4] = biological target: T1, CB1 receptor; parameters: method as in PMID 40180269; settings: SPR affinity assessment, earlier study, cited from earlier work
CB1 receptor [5] = biological target: T1, CB1 receptor; parameters: method as in PMID 31021521; settings: read-out: βarr2 Recruitment Assay EC50 Values; HEK293T cell lines; Table 3; cited from earlier work
CB1 receptor [6] = biological target: T1, CB1 receptor; assay: Surface Plasmon Resonance (SPR) affinity assay, CB1 protein immobilized on CM5 chip (Biacore T200); type: binding
Experimental: The ligand immobilization was conducted in four steps: ligand pre-enrichment, activation, coupling, and blocking. To prepare the 1.05× PBS-P buffer, it was diluted from the 10× PBS-P buffer. For ligand pre-enrichment, the Biacore T200 (cytiva, Marlborough, MA, USA; manufactured in Sweden) pre-enrichment program was employed. The 300 μg/mL protein stock solution was diluted to a final concentration of 15 μg/mL using 10 mM sodium acetate solutions at pH 4.0, 4.5, 5.0, and 5.5, respectively. The ligand was flowed over the surface of a blank chip at a flow rate of 30 μL/min to assess the effect of electrostatic adsorption. Based on the response difference and slope, the optimal coupling pH of 4.0 was selected. For activation, the Biacore T200 manual coupling program was used. The carboxylic acid groups on the chip surface were activated by injecting a 1:1 mixture of EDC and NHS from the amino-coupling kit at a flow rate of 10 μL/min for 900 s. During the coupling step, the 300 μg/mL protein stock solution was diluted 10-fold to 30 μg/mL using sodium acetate at pH 4.0. […]
For solvent correction, eight solvent correction points were established, with correction cycles performed at the beginning, end, and every 30 samples during the experiment. […] The system continuously monitored and recorded the sensorgram of the interaction between the sample and the CB1 protein in real time. […]

mice [7] = system: mice; parameters: method as in PMID 40180269; settings: cited from earlier work

## O=C(NC12CC3CC(CC(C3)C1)C2)c1cn(CCCCCF)c2ccccc12 [STS-135]
CB1 receptor [1]
  Ki: 1.93 nM

## CCCCCn1nc(C(=O)Oc2cccc3ccccc23)c2ccccc21 [SDB-005]
Mice [2]
  reward potential in the CPP test: weaker
Mice [3]
  effects in the tetrad test: weaker
CB1 receptor [4]; read-out: KD
  Kd: 53000 nM

## CCCCCn1cc(C(=O)c2cccc3ccccc23)c2ccccc21 [JWH-018]
Mice [2]
  reward potential in the CPP test: intermediate
Mice [3]
  effects in the tetrad test: intermediate
CB1 receptor [4]
  Kd: 39300 nM
CB1 receptor [1]
  Ki: 3.38 nM
CB1 receptor [5]
  EC50: 36.8 nM

## O=C(NC12CC3CC(CC(C3)C1)C2)c1nn(CCCCCF)c2ccccc12 [5F-AKB-48]
CB1 receptor [1]
  Ki: 0.87 nM
CB1 receptor [6]; 5F-AKB-48 versus STS-135
  reduction in the KD value on substitution of parent core from indole to indazole: 50%

## C=CCCCn1nc(C(=O)NC(C(=O)OC)C(C)(C)C)c2ccccc21 (centres unmarked) [MDMB-4en-PINACA]
CB1 receptor [6]; ratio of KD values, MDMB-4en-PINACA versus AMB-4en-PICA
  affinity relative to AMB-4en-PICA: six-fold higher affinity

## O=C(NC12CC3CC(CC(C3)C1)C2)c1nn(CCCCF)c2ccccc12 [4F-ABUTINACA]
Mice [7]
  LD50 (acute toxicity): 11.62 mg/kg
Mice [2]
  reward potential in the CPP test: strongest reward potential
Mice [3]
  effects in the tetrad test: most pronounced effects
CB1 receptor [4]; read-out: KD
  Kd: 20100 nM

## CC(C)C(NC(=O)c1nn(CC2CCCCC2)c2ccccc12)C(N)=O (centres unmarked) [AB-CHMINACA]
CB1 receptor [5]
  EC50: 0.34 nM
